Data published in patent publication US20110195900A1, “PEPTIDIC PTH RECEPTOR AGONISTS” (FERRING B.V., priority 2008, published 2011).
Read-outs that look alike come from different tables or passages of the source. Blank lines part the entries; values can stand above or below the molecule they belong to. Non-standard residues stand in square brackets, D forms with d. Residues, ends and D or L forms follow the SMILES beside them. No end group written: not given here. 1Nal = N[C@@H](Cc1cccc2ccccc12)C(=O)O; 2Nal = N[C@@H](Cc1ccc2ccccc2c1)C(=O)O; β3hI = CC[C@H](C)[C@H](N)CC(=O)O; β3hR = N=C(N)NCCC[C@H](N)CC(=O)O; β3hK = NCCCC[C@H](N)CC(=O)O; hSer = N[C@@H](CCO)C(=O)O; Nle = CCCC[C@H](N)C(=O)O; β3hA = C[C@H](N)CC(=O)O; Aib = CC(C)(N)C(=O)O; βAla = NCCC(=O)O

Columns and labels:
[1] = target: T1, human PTH-2 receptor (Homo sapiens, UniProt P49190); assay: Luciferase-based transcriptional reporter gene assay for selectivity; format: cell-based
T1 construct: expressed in transfected cells
Outline: (§1)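 Selectivity came from luciferase transcriptional reporter assays expressing human PTH-2 receptor. PTH-1 agonism used transiently transfected HEK-293 cells carrying SV40-promoter receptor and cAMP-responsive-element luciferase; 4-5 h compound exposure, lysis, luminescence, non-linear-regression EC50/efficacy; ≥3 independent runs, PTH (1-34) control each.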

[2] = target: T2, human PTH-1 receptor (Homo sapiens, UniProt Q03431); assay: Reporter gene assay (CRE-luciferase) for agonist activity in transiently transfected HEK-293 cells; format: cell-based; conditions: for hPTHR-2/hPTHR-1: selectivity for hPTH-1 receptor over hPTH-2 receptor
T2 construct: expressed in transfected cells; host or cells: HEK-293
T2 sequence (Q03431 27-593): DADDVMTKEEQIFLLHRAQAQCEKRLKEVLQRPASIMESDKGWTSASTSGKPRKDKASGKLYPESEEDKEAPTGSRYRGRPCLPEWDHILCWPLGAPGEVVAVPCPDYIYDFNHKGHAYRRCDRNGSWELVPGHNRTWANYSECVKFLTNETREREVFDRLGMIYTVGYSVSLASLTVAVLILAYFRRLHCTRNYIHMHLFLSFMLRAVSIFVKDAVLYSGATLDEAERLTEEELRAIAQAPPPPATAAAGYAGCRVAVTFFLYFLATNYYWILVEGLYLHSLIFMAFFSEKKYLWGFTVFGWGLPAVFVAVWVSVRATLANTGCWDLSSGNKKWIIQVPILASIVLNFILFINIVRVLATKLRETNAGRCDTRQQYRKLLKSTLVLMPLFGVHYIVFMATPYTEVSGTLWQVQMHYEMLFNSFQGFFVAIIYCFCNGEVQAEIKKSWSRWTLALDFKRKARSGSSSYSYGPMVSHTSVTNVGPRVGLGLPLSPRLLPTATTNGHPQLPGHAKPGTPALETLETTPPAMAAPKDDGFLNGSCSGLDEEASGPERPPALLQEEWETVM
Outline: as §1

[3] = target: human parathyroid hormone receptor 2 (human, UniProt P49190); assay: cell-based or functional assay
[4] = target: human parathyroid hormone receptor 1 (human, UniProt Q03431); assay: cell-based or functional assay

T1 sequence (P49190 25-550): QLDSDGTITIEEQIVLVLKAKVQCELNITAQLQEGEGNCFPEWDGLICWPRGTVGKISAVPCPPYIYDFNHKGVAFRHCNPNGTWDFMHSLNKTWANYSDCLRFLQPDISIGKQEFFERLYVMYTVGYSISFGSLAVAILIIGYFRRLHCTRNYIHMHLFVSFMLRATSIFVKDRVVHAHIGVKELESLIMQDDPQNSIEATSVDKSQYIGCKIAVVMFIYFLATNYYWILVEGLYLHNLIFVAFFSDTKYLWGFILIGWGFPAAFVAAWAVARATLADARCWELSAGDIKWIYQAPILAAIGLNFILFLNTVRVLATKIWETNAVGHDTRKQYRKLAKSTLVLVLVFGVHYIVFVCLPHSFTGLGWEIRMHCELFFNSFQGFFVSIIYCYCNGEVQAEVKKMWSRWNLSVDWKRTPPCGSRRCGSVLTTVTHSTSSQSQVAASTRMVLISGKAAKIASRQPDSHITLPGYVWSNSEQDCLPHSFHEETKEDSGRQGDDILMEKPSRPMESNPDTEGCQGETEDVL

- EC50 ([1]; Table 3, luciferase reporter gene assay, read-out: hPTHR-2 EC50): 3 nM
- EC50 ([2]; Table 3, HEK-293 cells, CRE-luciferase, 4-5 hours exposure, read-out: hPTHR-1 EC50): 0.05 nM
- hPTHR-2/hPTHR-1 ([2]; Table 3, ratio of EC50 values): 51
Molecule: CCCC[C@H](NC(=O)[C@H](CC(C)C)NC(=O)[C@H](CCC(N)=O)NC(=O)[C@@H](NC(=O)[C@H](CCC(=O)O)NC(=O)[C@H](CO)NC(=O)[C@@H](NC(=O)C(C)(C)N)C(C)C)[C@@H](C)CC)C(=O)N[C@@H](Cc1c[nH]cn1)C(=O)N[C@@H](CC(N)=O)C(=O)N[C@@H](CC(C)C)C(=O)NCC(=O)N[C@@H](CCCCN)C(=O)N[C@@H](Cc1c[nH]cn1)C(=O)N[C@@H](CC(C)C)C(=O)N[C@@H](CC(N)=O)C(=O)N[C@@H](CO)C(=O)N[C@@H](CCOC)C(=O)N[C@@H](CCCCN)CC(=O)N[C@@H](CCCNC(=N)N)C(=O)N[C@H](C(=O)N[C@@H](CCC(=O)O)C(=O)N[C@@H](Cc1cccc2ccccc12)C(=O)N[C@@H](CC(C)C)C(=O)N[C@@H](CCCNC(=N)N)C(=O)N[C@@H](CCCCN)C(=O)N[C@@H](CC(C)C)C(=O)N[C@@H](CC(C)C)C(=O)N[C@@H](CCC(N)=O)C(=O)N[C@@H](CC(=O)O)C(=O)N[C@H](C(=O)N[C@@H](Cc1c[nH]cn1)C(=O)N[C@@H](CC(N)=O)C(=O)N[C@@H](Cc1ccccc1)C(N)=O)C(C)C)C(C)C [SEQ ID NO: 47, [Aib^1, Nle^8, hSer(OMe)^18, β-hLys^19,1-Nal^23, Leu^27] hPTH (1-$$4)-NH2] (H-[Aib]VSEIQL[Nle]HNLGKHLNS[hSer](Me)[β3hK]RVE[1Nal]LRKLLQDVHNF-NH2)

- EC50 ([1]; Table 4 comparison data, luciferase reporter gene assay, read-out: hPTHR-2 EC50): 46 nM
- EC50 ([2]; Table 4 comparison data, HEK-293 cells, CRE-luciferase, read-out: hPTHR-1 EC50): 0.22 nM
- Selectivity hPTHR-2/hPTHR-1 ([2]; Table 4 comparison data, ratio of EC50 values): 213
Molecule: CCCC[C@H](NC(=O)CCNC(=O)[C@H](CC(N)=O)NC(=O)[C@H](CC(C)C)NC(=O)[C@H](Cc1c[nH]cn1)NC(=O)[C@H](CCCCN)NC(=O)CNC(=O)[C@H](CC(C)C)NC(=O)[C@H](CC(N)=O)NC(=O)[C@H](Cc1c[nH]cn1)NC(=O)[C@H](CCCC)NC(=O)[C@H](CC(C)C)NC(=O)[C@H](CCC(N)=O)NC(=O)[C@@H](NC(=O)[C@H](CCC(=O)O)NC(=O)[C@H](CO)NC(=O)[C@@H](NC(=O)C(C)(C)N)C(C)C)[C@@H](C)CC)C(=O)N[C@@H](CCC(=O)O)C(=O)N[C@@H](CCCNC(=N)N)C(=O)N[C@H](C(=O)N[C@@H](CCC(=O)O)C(=O)N[C@@H](Cc1cccc2ccccc12)C(=O)N[C@@H](CC(C)C)C(=O)N[C@@H](CCCNC(=N)N)C(=O)N[C@@H](CCCCN)C(=O)N[C@@H](CCCCN)C(=O)N[C@@H](CC(C)C)C(=O)N[C@@H](CCC(N)=O)C(=O)N[C@@H](CC(=O)O)C(=O)N[C@H](C(=O)N[C@@H](Cc1c[nH]cn1)C(=O)N[C@@H](CC(N)=O)C(=O)N[C@@H](Cc1ccccc1)C(N)=O)C(C)C)C(C)C [SEQ ID NO: 55, [Aib^1, Nle^8,18, β-Ala^17,1-Nal^23] hPTH (1-34)-NH2] (H-[Aib]VSEIQL[Nle]HNLGKHLN[βAla][Nle]ERVE[1Nal]LRKKLQDVHNF-NH2)

More lines, now with the values behind:

Molecule: CCCC[C@H](NC(=O)[C@H](CC(C)C)NC(=O)[C@H](CCC(N)=O)NC(=O)[C@@H](NC(=O)[C@H](CCC(=O)O)NC(=O)[C@H](CO)NC(=O)[C@@H](NC(=O)[C@@H](N)CO)C(C)C)[C@@H](C)CC)C(=O)N[C@@H](Cc1c[nH]cn1)C(=O)N[C@@H](CO)C(=O)N[C@@H](CC(C)C)C(=O)NCC(=O)N[C@@H](CCCCN)C(=O)N[C@@H](Cc1c[nH]cn1)C(=O)N[C@@H](CC(C)C)C(=O)N[C@@H](CCCCN)C(=O)N[C@@H](CO)C(=O)N[C@H](CC(=O)N[C@@H](CCC(=O)O)C(=O)N[C@@H](CCCNC(=N)N)C(=O)N[C@H](C(=O)N[C@@H](CCC(=O)O)C(=O)N[C@@H](Cc1cccc2ccccc12)C(=O)N[C@@H](CC(C)C)C(=O)N[C@@H](CCCNC(=N)N)C(=O)N[C@@H](CCCCN)C(=O)N[C@@H](CC(C)C)C(=O)N[C@@H](CC(C)C)C(=O)N[C@@H](CCC(N)=O)C(=O)N[C@@H](CCCNC(=N)N)C(=O)N[C@H](C(N)=O)C(C)C)C(C)C)[C@@H](C)CC [SEQ ID NO: 49, [Nle^8, Ser^10, Lys^16, β-hIle^18,1-Nal^23, Leu^27, Arg^30] hPTH (1-31)-NH2] (H-SVSEIQL[Nle]HSLGKHLKS[β3hI]ERVE[1Nal]LRKLLQRV-NH2)
- EC50 [1]: 7 nM
- EC50 [2]: 0.08 nM
- hPTHR-2/hPTHR-1 ([2]; Table 3, ratio of EC50 values): 87

B1: [Nle^8, β-hArg^18, 2-Nal^23] hPTH (1-34)-NH2 (peptide)
peptide: SVSEIQL[Nle]HNLGKHLNS[β3hR]ERVE[2Nal]LRKKLQDVHNF-NH2
modifications: N-terminus assumed
SMILES: CCCC[C@H](NC(=O)[C@H](CC(C)C)NC(=O)[C@H](CCC(N)=O)NC(=O)[C@@H](NC(=O)[C@H](CCC(=O)O)NC(=O)[C@H](CO)NC(=O)[C@@H](NC(=O)[C@@H](N)CO)C(C)C)[C@@H](C)CC)C(=O)N[C@@H](Cc1c[nH]cn1)C(=O)N[C@@H](CC(N)=O)C(=O)N[C@@H](CC(C)C)C(=O)NCC(=O)N[C@@H](CCCCN)C(=O)N[C@@H](Cc1c[nH]cn1)C(=O)N[C@@H](CC(C)C)C(=O)N[C@@H](CC(N)=O)C(=O)N[C@@H](CO)C(=O)N[C@@H](CCCNC(=N)N)CC(=O)N[C@@H](CCC(=O)O)C(=O)N[C@@H](CCCNC(=N)N)C(=O)N[C@H](C(=O)N[C@@H](CCC(=O)O)C(=O)N[C@@H](Cc1ccc2ccccc2c1)C(=O)N[C@@H](CC(C)C)C(=O)N[C@@H](CCCNC(=N)N)C(=O)N[C@@H](CCCCN)C(=O)N[C@@H](CCCCN)C(=O)N[C@@H](CC(C)C)C(=O)N[C@@H](CCC(N)=O)C(=O)N[C@@H](CC(=O)O)C(=O)N[C@H](C(=O)N[C@@H](Cc1c[nH]cn1)C(=O)N[C@@H](CC(N)=O)C(=O)N[C@@H](Cc1ccccc1)C(N)=O)C(C)C)C(C)C
- hPTHR-2 EC50 (nM), luciferase reporter gene assay [3]: 36 nM
- hPTHR-1 EC50 (nM), CRE-luciferase reporter gene assay [4]: 0.24 nM

B2: [Nle^8, β-hAla^18, 2-Nal^23] hPTH (1-34)-NH2 (peptide)
peptide: SVSEIQL[Nle]HNLGKHLNS[β3hA]ERVE[2Nal]LRKKLQDVHNF-NH2
modifications: N-terminus assumed
SMILES: CCCC[C@H](NC(=O)[C@H](CC(C)C)NC(=O)[C@H](CCC(N)=O)NC(=O)[C@@H](NC(=O)[C@H](CCC(=O)O)NC(=O)[C@H](CO)NC(=O)[C@@H](NC(=O)[C@@H](N)CO)C(C)C)[C@@H](C)CC)C(=O)N[C@@H](Cc1c[nH]cn1)C(=O)N[C@@H](CC(N)=O)C(=O)N[C@@H](CC(C)C)C(=O)NCC(=O)N[C@@H](CCCCN)C(=O)N[C@@H](Cc1c[nH]cn1)C(=O)N[C@@H](CC(C)C)C(=O)N[C@@H](CC(N)=O)C(=O)N[C@@H](CO)C(=O)N[C@@H](C)CC(=O)N[C@@H](CCC(=O)O)C(=O)N[C@@H](CCCNC(=N)N)C(=O)N[C@H](C(=O)N[C@@H](CCC(=O)O)C(=O)N[C@@H](Cc1ccc2ccccc2c1)C(=O)N[C@@H](CC(C)C)C(=O)N[C@@H](CCCNC(=N)N)C(=O)N[C@@H](CCCCN)C(=O)N[C@@H](CCCCN)C(=O)N[C@@H](CC(C)C)C(=O)N[C@@H](CCC(N)=O)C(=O)N[C@@H](CC(=O)O)C(=O)N[C@H](C(=O)N[C@@H](Cc1c[nH]cn1)C(=O)N[C@@H](CC(N)=O)C(=O)N[C@@H](Cc1ccccc1)C(N)=O)C(C)C)C(C)C
- hPTHR-2 EC50 (nM), luciferase reporter gene assay [3]: 73 nM
- hPTHR-1 EC50 (nM), CRE-luciferase reporter gene assay [4]: 0.34 nM

B3: [Nle^8, β-hIle^18, 2-Nal^23] hPTH (1-34)-NH2 (peptide)
peptide: SVSEIQL[Nle]HNLGKHLNS[β3hI]ERVE[2Nal]LRKKLQDVHNF-NH2
modifications: N-terminus assumed
SMILES: CCCC[C@H](NC(=O)[C@H](CC(C)C)NC(=O)[C@H](CCC(N)=O)NC(=O)[C@@H](NC(=O)[C@H](CCC(=O)O)NC(=O)[C@H](CO)NC(=O)[C@@H](NC(=O)[C@@H](N)CO)C(C)C)[C@@H](C)CC)C(=O)N[C@@H](Cc1c[nH]cn1)C(=O)N[C@@H](CC(N)=O)C(=O)N[C@@H](CC(C)C)C(=O)NCC(=O)N[C@@H](CCCCN)C(=O)N[C@@H](Cc1c[nH]cn1)C(=O)N[C@@H](CC(C)C)C(=O)N[C@@H](CC(N)=O)C(=O)N[C@@H](CO)C(=O)N[C@H](CC(=O)N[C@@H](CCC(=O)O)C(=O)N[C@@H](CCCNC(=N)N)C(=O)N[C@H](C(=O)N[C@@H](CCC(=O)O)C(=O)N[C@@H](Cc1ccc2ccccc2c1)C(=O)N[C@@H](CC(C)C)C(=O)N[C@@H](CCCNC(=N)N)C(=O)N[C@@H](CCCCN)C(=O)N[C@@H](CCCCN)C(=O)N[C@@H](CC(C)C)C(=O)N[C@@H](CCC(N)=O)C(=O)N[C@@H](CC(=O)O)C(=O)N[C@H](C(=O)N[C@@H](Cc1c[nH]cn1)C(=O)N[C@@H](CC(N)=O)C(=O)N[C@@H](Cc1ccccc1)C(N)=O)C(C)C)C(C)C)[C@@H](C)CC
- hPTHR-2 EC50 (nM), luciferase reporter gene assay [3]: 42 nM
- hPTHR-1 EC50 (nM), CRE-luciferase reporter gene assay [4]: 0.25 nM
